What was measured:
Assay in all cases: relative viability (nuclei count vs DMSO), 5 days (fraction); higher = more cells survive
Crizotinib + Luminespib = compound: C[C@@H](Oc1cc(-c2cnn(C3CCNCC3)c2)cnc1N)c1c(Cl)ccc(F)c1Cl [Crizotinib] + CCNC(=O)c1noc(-c2cc(C(C)C)c(O)cc2O)c1-c1ccc(CN2CCOCC2)cc1 [Luminespib] (partner 0.01 µM)
Summary of the method: (§1)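 One day after seeding in 1536-well plates, lung cancer cell lines were dosed by pin tool. Dosing was either single-drug or a fixed anchor-drug dose plus five library-drug doses (not always all listed) in √10 steps. After 5 days, nuclei were stained in one fix-and-stain step and counted on 4× images, and relative viability is the nuclei count of treated wells over that of vehicle wells, given as the median of duplicate plates.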

Crizotinib + Alpelisib = compound: C[C@@H](Oc1cc(-c2cnn(C3CCNCC3)c2)cnc1N)c1c(Cl)ccc(F)c1Cl [Crizotinib] + Cc1nc(NC(=O)N2CCC[C@H]2C(N)=O)sc1-c1ccnc(C(C)(C)C(F)(F)F)c1 [Alpelisib] (partner 2 µM)
Summary of the method: as §1

Crizotinib + Dasatinib = compound: C[C@@H](Oc1cc(-c2cnn(C3CCNCC3)c2)cnc1N)c1c(Cl)ccc(F)c1Cl [Crizotinib] + Cc1nc(Nc2ncc(C(=O)Nc3c(C)cccc3Cl)s2)cc(N2CCN(CCO)CC2)n1 [Dasatinib] (partner 0.075 µM)
Summary of the method: as §1

Crizotinib + Pemetrexed = compound: C[C@@H](Oc1cc(-c2cnn(C3CCNCC3)c2)cnc1N)c1c(Cl)ccc(F)c1Cl [Crizotinib] + Nc1nc2[nH]cc(CCc3ccc(C(=O)N[C@@H](CCC(=O)O)C(=O)O)cc3)c2c(=O)[nH]1 [Pemetrexed] (partner 0.2 µM)
Summary of the method: as §1

NCI-H2170
relative viability (Crizotinib + Luminespib; first compound 0.01 µM): 0.914 | relative viability (Crizotinib + Luminespib; first compound 0.03162 µM): 0.806 | relative viability (Crizotinib + Luminespib; first compound 0.1 µM): 0.649 | relative viability (Crizotinib + Luminespib; first compound 0.3162 µM): 0.606 | relative viability (Crizotinib + Luminespib; first compound 1 µM): 0.511 | relative viability (Crizotinib + Alpelisib; first compound 0.01 µM): 0.804 | relative viability (Crizotinib + Alpelisib; first compound 0.03162 µM): 0.779 | relative viability (Crizotinib + Alpelisib; first compound 0.1 µM): 0.74 | relative viability (Crizotinib + Alpelisib; first compound 0.3162 µM): 0.709 | relative viability (Crizotinib + Alpelisib; first compound 1 µM): 0.904 | relative viability (Crizotinib + Dasatinib; first compound 0.01 µM): 0.642 | relative viability (Crizotinib + Dasatinib; first compound 0.03162 µM): 0.506 | relative viability (Crizotinib + Dasatinib; first compound 0.1 µM): 0.566 | relative viability (Crizotinib + Dasatinib; first compound 0.3162 µM): 0.481 | relative viability (Crizotinib + Dasatinib; first compound 1 µM): 0.624 | relative viability (Crizotinib + Pemetrexed; first compound 0.01 µM): 0.251 | relative viability (Crizotinib + Pemetrexed; first compound 0.03162 µM): 0.283 | relative viability (Crizotinib + Pemetrexed; first compound 0.1 µM): 0.265 | relative viability (Crizotinib + Pemetrexed; first compound 0.3162 µM): 0.266 | relative viability (Crizotinib + Pemetrexed; first compound 1 µM): 0.278

NCI-H2228
relative viability (Crizotinib + Luminespib; first compound 0.01 µM): 0.119 | relative viability (Crizotinib + Luminespib; first compound 0.03162 µM): 0.16 | relative viability (Crizotinib + Luminespib; first compound 0.1 µM): 0.132 | relative viability (Crizotinib + Luminespib; first compound 0.3162 µM): 0.122 | relative viability (Crizotinib + Luminespib; first compound 1 µM): 0.119 | relative viability (Crizotinib + Alpelisib; first compound 0.01 µM): 0.666 | relative viability (Crizotinib + Alpelisib; first compound 0.03162 µM): 0.799 | relative viability (Crizotinib + Alpelisib; first compound 0.1 µM): 0.769 | relative viability (Crizotinib + Alpelisib; first compound 0.3162 µM): 0.451 | relative viability (Crizotinib + Alpelisib; first compound 1 µM): 0.288 | relative viability (Crizotinib + Dasatinib; first compound 0.01 µM): 0.459 | relative viability (Crizotinib + Dasatinib; first compound 0.03162 µM): 0.566 | relative viability (Crizotinib + Dasatinib; first compound 0.1 µM): 0.575 | relative viability (Crizotinib + Dasatinib; first compound 0.3162 µM): 0.26 | relative viability (Crizotinib + Dasatinib; first compound 1 µM): 0.112 | relative viability (Crizotinib + Pemetrexed; first compound 0.01 µM): 0.338 | relative viability (Crizotinib + Pemetrexed; first compound 0.03162 µM): 0.324 | relative viability (Crizotinib + Pemetrexed; first compound 0.1 µM): 0.296 | relative viability (Crizotinib + Pemetrexed; first compound 0.3162 µM): 0.352 | relative viability (Crizotinib + Pemetrexed; first compound 1 µM): 0.317

NCI-H2347
relative viability (Crizotinib + Luminespib; first compound 0.01 µM): 0.212 | relative viability (Crizotinib + Luminespib; first compound 0.03162 µM): 0.458 | relative viability (Crizotinib + Luminespib; first compound 0.1 µM): 0.482 | relative viability (Crizotinib + Luminespib; first compound 0.3162 µM): 0.681 | relative viability (Crizotinib + Luminespib; first compound 1 µM): 0.404 | relative viability (Crizotinib + Alpelisib; first compound 0.01 µM): 1.04 | relative viability (Crizotinib + Alpelisib; first compound 0.03162 µM): 1.03 | relative viability (Crizotinib + Alpelisib; first compound 0.1 µM): 1.03 | relative viability (Crizotinib + Alpelisib; first compound 0.3162 µM): 0.978 | relative viability (Crizotinib + Alpelisib; first compound 1 µM): 0.996 | relative viability (Crizotinib + Dasatinib; first compound 0.01 µM): 0.305 | relative viability (Crizotinib + Dasatinib; first compound 0.03162 µM): 0.272 | relative viability (Crizotinib + Dasatinib; first compound 0.1 µM): 0.312 | relative viability (Crizotinib + Dasatinib; first compound 0.3162 µM): 0.244 | relative viability (Crizotinib + Dasatinib; first compound 1 µM): 0.25 | relative viability (Crizotinib + Pemetrexed; first compound 0.01 µM): 0.387 | relative viability (Crizotinib + Pemetrexed; first compound 0.03162 µM): 0.441 | relative viability (Crizotinib + Pemetrexed; first compound 0.1 µM): 0.446 | relative viability (Crizotinib + Pemetrexed; first compound 0.3162 µM): 0.457 | relative viability (Crizotinib + Pemetrexed; first compound 1 µM): 0.416

NCI-H2405
relative viability (Crizotinib + Luminespib; first compound 0.01 µM): 0.629 | relative viability (Crizotinib + Luminespib; first compound 0.03162 µM): 0.706 | relative viability (Crizotinib + Luminespib; first compound 0.1 µM): 0.697 | relative viability (Crizotinib + Luminespib; first compound 0.3162 µM): 0.785 | relative viability (Crizotinib + Luminespib; first compound 1 µM): 0.806 | relative viability (Crizotinib + Alpelisib; first compound 0.01 µM): 0.74 | relative viability (Crizotinib + Alpelisib; first compound 0.03162 µM): 0.762 | relative viability (Crizotinib + Alpelisib; first compound 0.1 µM): 0.69 | relative viability (Crizotinib + Alpelisib; first compound 0.3162 µM): 0.818 | relative viability (Crizotinib + Alpelisib; first compound 1 µM): 0.857 | relative viability (Crizotinib + Dasatinib; first compound 0.01 µM): 0.244 | relative viability (Crizotinib + Dasatinib; first compound 0.03162 µM): 0.237 | relative viability (Crizotinib + Dasatinib; first compound 0.1 µM): 0.192 | relative viability (Crizotinib + Dasatinib; first compound 0.3162 µM): 0.217 | relative viability (Crizotinib + Dasatinib; first compound 1 µM): 0.196 | relative viability (Crizotinib + Pemetrexed; first compound 0.01 µM): 0.875 | relative viability (Crizotinib + Pemetrexed; first compound 0.03162 µM): 1.09 | relative viability (Crizotinib + Pemetrexed; first compound 0.1 µM): 1.04 | relative viability (Crizotinib + Pemetrexed; first compound 0.3162 µM): 0.993

NCI-H3122
relative viability (Crizotinib + Luminespib; first compound 0.01 µM): 0.119 | relative viability (Crizotinib + Luminespib; first compound 0.03162 µM): 0.0745 | relative viability (Crizotinib + Luminespib; first compound 0.1 µM): 0.0793 | relative viability (Crizotinib + Luminespib; first compound 0.3162 µM): 0.0767 | relative viability (Crizotinib + Luminespib; first compound 1 µM): 0.105 | relative viability (Crizotinib + Alpelisib; first compound 0.01 µM): 0.729 | relative viability (Crizotinib + Alpelisib; first compound 0.03162 µM): 0.667 | relative viability (Crizotinib + Alpelisib; first compound 0.1 µM): 0.857 | relative viability (Crizotinib + Alpelisib; first compound 0.3162 µM): 0.867 | relative viability (Crizotinib + Alpelisib; first compound 1 µM): 0.796 | relative viability (Crizotinib + Dasatinib; first compound 0.01 µM): 0.786 | relative viability (Crizotinib + Dasatinib; first compound 0.03162 µM): 0.799 | relative viability (Crizotinib + Dasatinib; first compound 0.1 µM): 0.836 | relative viability (Crizotinib + Dasatinib; first compound 0.3162 µM): 0.74 | relative viability (Crizotinib + Dasatinib; first compound 1 µM): 0.735 | relative viability (Crizotinib + Pemetrexed; first compound 0.01 µM): 0.192 | relative viability (Crizotinib + Pemetrexed; first compound 0.03162 µM): 0.196 | relative viability (Crizotinib + Pemetrexed; first compound 0.1 µM): 0.195 | relative viability (Crizotinib + Pemetrexed; first compound 0.3162 µM): 0.182 | relative viability (Crizotinib + Pemetrexed; first compound 1 µM): 0.192

PC-3 [JPC-3]
relative viability (Crizotinib + Luminespib; first compound 0.01 µM): 0.727 | relative viability (Crizotinib + Luminespib; first compound 0.03162 µM): 0.649 | relative viability (Crizotinib + Luminespib; first compound 0.1 µM): 0.741 | relative viability (Crizotinib + Luminespib; first compound 0.3162 µM): 0.678 | relative viability (Crizotinib + Luminespib; first compound 1 µM): 0.78 | relative viability (Crizotinib + Alpelisib; first compound 0.01 µM): 0.959 | relative viability (Crizotinib + Alpelisib; first compound 0.03162 µM): 1.04 | relative viability (Crizotinib + Alpelisib; first compound 0.1 µM): 1.05 | relative viability (Crizotinib + Alpelisib; first compound 0.3162 µM): 0.998 | relative viability (Crizotinib + Alpelisib; first compound 1 µM): 1.07 | relative viability (Crizotinib + Dasatinib; first compound 0.01 µM): 1.07 | relative viability (Crizotinib + Dasatinib; first compound 0.03162 µM): 0.996 | relative viability (Crizotinib + Dasatinib; first compound 0.1 µM): 1.01 | relative viability (Crizotinib + Dasatinib; first compound 0.3162 µM): 1.02 | relative viability (Crizotinib + Dasatinib; first compound 1 µM): 0.975 | relative viability (Crizotinib + Pemetrexed; first compound 0.01 µM): 0.883 | relative viability (Crizotinib + Pemetrexed; first compound 0.03162 µM): 1.23 | relative viability (Crizotinib + Pemetrexed; first compound 0.1 µM): 1.19 | relative viability (Crizotinib + Pemetrexed; first compound 1 µM): 1.05

PC-14
relative viability (Crizotinib + Luminespib; first compound 0.01 µM): 0.156 | relative viability (Crizotinib + Luminespib; first compound 0.03162 µM): 0.152 | relative viability (Crizotinib + Luminespib; first compound 0.1 µM): 0.183 | relative viability (Crizotinib + Luminespib; first compound 0.3162 µM): 0.186 | relative viability (Crizotinib + Luminespib; first compound 1 µM): 0.168 | relative viability (Crizotinib + Alpelisib; first compound 0.01 µM): 0.914 | relative viability (Crizotinib + Alpelisib; first compound 0.03162 µM): 0.921 | relative viability (Crizotinib + Alpelisib; first compound 0.1 µM): 0.931 | relative viability (Crizotinib + Alpelisib; first compound 0.3162 µM): 0.845 | relative viability (Crizotinib + Alpelisib; first compound 1 µM): 0.911 | relative viability (Crizotinib + Dasatinib; first compound 0.01 µM): 0.286 | relative viability (Crizotinib + Dasatinib; first compound 0.03162 µM): 0.241 | relative viability (Crizotinib + Dasatinib; first compound 0.1 µM): 0.245 | relative viability (Crizotinib + Dasatinib; first compound 0.3162 µM): 0.201 | relative viability (Crizotinib + Dasatinib; first compound 1 µM): 0.238 | relative viability (Crizotinib + Pemetrexed; first compound 0.01 µM): 0.124 | relative viability (Crizotinib + Pemetrexed; first compound 0.03162 µM): 0.127 | relative viability (Crizotinib + Pemetrexed; first compound 0.1 µM): 0.134 | relative viability (Crizotinib + Pemetrexed; first compound 0.3162 µM): 0.143 | relative viability (Crizotinib + Pemetrexed; first compound 1 µM): 0.132

RERF-LC-KJ
relative viability (Crizotinib + Luminespib; first compound 0.01 µM): 1.22 | relative viability (Crizotinib + Luminespib; first compound 0.03162 µM): 1.31 | relative viability (Crizotinib + Luminespib; first compound 0.1 µM): 1.29 | relative viability (Crizotinib + Luminespib; first compound 0.3162 µM): 1.21 | relative viability (Crizotinib + Luminespib; first compound 1 µM): 1.21 | relative viability (Crizotinib + Alpelisib; first compound 0.01 µM): 0.702 | relative viability (Crizotinib + Alpelisib; first compound 0.03162 µM): 0.847 | relative viability (Crizotinib + Alpelisib; first compound 0.1 µM): 0.82 | relative viability (Crizotinib + Alpelisib; first compound 0.3162 µM): 0.816 | relative viability (Crizotinib + Dasatinib; first compound 0.01 µM): 0.751 | relative viability (Crizotinib + Dasatinib; first compound 0.03162 µM): 0.817 | relative viability (Crizotinib + Dasatinib; first compound 0.1 µM): 0.751 | relative viability (Crizotinib + Dasatinib; first compound 0.3162 µM): 0.81 | relative viability (Crizotinib + Dasatinib; first compound 1 µM): 0.691 | relative viability (Crizotinib + Pemetrexed; first compound 0.01 µM): 0.475 | relative viability (Crizotinib + Pemetrexed; first compound 0.03162 µM): 0.459 | relative viability (Crizotinib + Pemetrexed; first compound 0.1 µM): 0.461 | relative viability (Crizotinib + Pemetrexed; first compound 0.3162 µM): 0.473 | relative viability (Crizotinib + Pemetrexed; first compound 1 µM): 0.517
